Assay results reported in patent US8680290B2, “Isoxazoline derivatives and their use as herbicides” (Syngenta Limited, priority 2004, dated 2014).

Key:
[1] = test system: Monocotyledonous and dicotyledonous test plants; test: Example B2 herbicidal action, application pre-emergence, 96-cell seed trays (Table B2b); assay type: in vivo; conditions: 1000 g/ha
Description: Monocotyledonous and dicotyledonous test plants were sown in sterilised standard soil in seed trays each having 96 cells. After one day (pre-emergence) or after 8 to 9 days cultivation (post-emergence) under controlled conditions in a climatic chamber (cultivation at 17/23° C.; 13 hours light; 50-60% humidity; after application at 19/24° C.), the plants were treated with an aqueous spray solution of 1000 mg/l of the active ingredient used (rate of application: […]; incl. 10% DMSO as solvent). The plants were grown on in the climatic chamber until the test was evaluated (10 total damage to plant, 0=no damage to plant) after 9 or 13 days.

[2] = test system: Monocotyledonous and dicotyledonous test plants; test: Example B1 herbicidal action, application post-emergence (Table B1a); assay type: in vivo; conditions: 250 g/ha, evaluated after 3 weeks, scale 0-10
Method in brief: (§1)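 Compounds sprayed as aqueous solution from acetone/Emulsogen EL/NMP/dipropylene glycol monomethyl ether/X-77 formulation onto soil right after sowing (pre-emergence) or onto 8–9-day plants (post-emergence); greenhouse-grown. Damage scored 0 (none) to 10 (total) after 4 weeks pre- or 3 weeks post-emergence.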

[3] = test system: Monocotyledonous and dicotyledonous test plants; test: Example B1 herbicidal action, application pre-emergence (Table B1b); assay type: in vivo; conditions: 250 g/ha, evaluated after 4 weeks
Method in brief: as §1

melting point	SMILES	herbicidal action (damage rating 0-10), Agrostis [1]	herbicidal action (damage rating 0-10), Digitaria [1]	herbicidal action (damage rating 0-10), Poa [1]	herbicidal action (damage rating 0-10), Setaria [1]	herbicidal damage rating, Abutilon [2]	herbicidal damage rating, Amaranthus [2]	herbicidal damage rating, Digitaria [2]	herbicidal damage rating, Panicum [2]	herbicidal damage rating, Setaria [2]	herbicidal damage rating, Sida [2]	herbicidal action (damage rating 0-10), Amaranthus [3]	herbicidal action (damage rating 0-10), Digitaria [3]	herbicidal action (damage rating 0-10), Panicum [3]	herbicidal action (damage rating 0-10), Setaria [3]	herbicidal action (damage rating 0-10), Sida [3]
135 °C	CC1(C)CC(S(=O)(=O)C(Br)c2c(F)cccc2F)=NO1 (centres unmarked) [Compound No. 1.19, 3-[bromo-(2,6-difluorophenyl)-methanesulfonyl]-5,5-dimethyl-4,5-dihydroisoxazole]	10	9	10	9	6	5	6	5	5	2	10	10	10	10	6
156 °C	CC1(C)CC(S(=O)(=O)C(I)c2c(F)cccc2F)=NO1 (centres unmarked) [Compound No. 1.25, 3-[(2,6-difluoro-phenyl)-iodo-methanesulfonyl]-5,5-dimethyl-4,5-dihydroisoxazole]	10	9	10	8	5		4	3	3	4	10	10	10	10	3
116 °C	CC(=O)C(c1c(F)cccc1F)S(=O)(=O)C1=NOC(C)(C)C1 (centres unmarked) [Compound No. 1.27, 1-(2,6-difluorophenyl)-1-(5,5-dimethyl-4,5-dihydroisoxazole-3-sulfonyl)-propan-2-one]	10	9	9	9	4		2	5	3	4	7	4	9	5	2

Second part, the compound before the results:

SMILES	melting point	herbicidal action (damage rating 0-10), Agrostis [1]	herbicidal action (damage rating 0-10), Digitaria [1]	herbicidal action (damage rating 0-10), Poa [1]	herbicidal action (damage rating 0-10), Setaria [1]	herbicidal damage rating, Abutilon [2]	herbicidal damage rating, Amaranthus [2]	herbicidal damage rating, Digitaria [2]	herbicidal damage rating, Panicum [2]	herbicidal damage rating, Setaria [2]	herbicidal damage rating, Sida [2]	herbicidal action (damage rating 0-10), Amaranthus [3]	herbicidal action (damage rating 0-10), Digitaria [3]	herbicidal action (damage rating 0-10), Panicum [3]	herbicidal action (damage rating 0-10), Setaria [3]	herbicidal action (damage rating 0-10), Sida [3]
CC1(C)CC(S(=O)(=O)C(F)(Cl)c2c(F)cccc2F)=NO1 (centres unmarked) [Compound No. 1.21, 3-[chloro-(2,6-difluoro-phenyl)-fluoro-methanesulfonyl]-5,5-dimethyl-4,5-dihydroisoxazole]	129 °C	10	10	10	9	7		7	9	7	5	10	10	10	10	9
CC1(C)CC(S(=O)(=O)C(C(N)=O)c2c(F)cccc2F)=NO1 (centres unmarked) [Compound No. 1.23, 2-(2,6-difluoro-phenyl)-2-(5,5-dimethyl-4,5-dihydroisoxazole-3-sulfonyl)-acetamide]	175 °C	10	8	10	8							7	4	10	7	0
CC1(C)CC(S(=O)(=O)C(Cl)(Cl)c2c(F)cccc2F)=NO1 [Compound No. 1.26, 3-[dichloro-(2,6-difluoro-phenyl)-methanesulfonyl]-5,5-dimethyl-4,5-dihydroisoxazole]	126 °C	10	10	10	9	4		4	3	5		10	9	10	10	4
Cc1cccc(C(Cl)S(=O)(=O)C2=NOC(C)(C)C2)c1 (centres unmarked) [Compound No. 1.30, 3-[chloro-m-tolyl-methanesulfonyl]-5,5-dimethyl-4,5-dihydroisoxazole]	102 °C	10	10	10	10							0	9	10	9	2
CC1(C)CC(S(=O)(=O)C(Cl)(Br)c2c(F)cccc2F)=NO1 (centres unmarked) [Compound No. 1.53, 3-[bromo-chloro-(2,6-difluorophenyl)-methanesulfonyl]-5,5-dimethyl-4,5-dihydroisoxazole]	119 °C					5	7	7	7	7	2	9	10	10	10	5
Cc1onc(C2CC2)c1C(Cl)S(=O)(=O)C1=NOC(C)(C)C1 (centres unmarked) [Compound No. 3.07, 4-[chloro-(5,5-dimethyl-4,5-dihydroisoxazole-3-sulfonyl)methyl]-3-cyclopropyl-5-methyl-isoxazole]	159 °C											4	9		8	2
COc1cc(C(F)S(=O)(=O)C2=NOC(C)(C)C2)on1 (centres unmarked) [Compound No. 5.03, 5-[(5,5-dimethyl-4,5-dihydroisoxazole-3-sulfonyl)-fluoromethyl]-3-methoxy-isoxazole]	99 °C											10			9	2
